22 compounds from patent US9045445B2, “Glycine transporter-1 inhibitors, methods of making them, and uses thereof” (Albany Molecular Research, Inc., priority 2010, dated 2015) can be followed below.

Where a name gives a salt, the structure may show the parent alone.

The target in the first experiment is T1, glycine transporter-1 (GlyT-1) (Homo sapiens, UniProt P48067).
T1 construct: JAR cells (ATCC#HTB-144), which endogenously express GlyT-1; host or cells: JAR human choriocarcinoma cells
T1 sequence (P48067 1-706): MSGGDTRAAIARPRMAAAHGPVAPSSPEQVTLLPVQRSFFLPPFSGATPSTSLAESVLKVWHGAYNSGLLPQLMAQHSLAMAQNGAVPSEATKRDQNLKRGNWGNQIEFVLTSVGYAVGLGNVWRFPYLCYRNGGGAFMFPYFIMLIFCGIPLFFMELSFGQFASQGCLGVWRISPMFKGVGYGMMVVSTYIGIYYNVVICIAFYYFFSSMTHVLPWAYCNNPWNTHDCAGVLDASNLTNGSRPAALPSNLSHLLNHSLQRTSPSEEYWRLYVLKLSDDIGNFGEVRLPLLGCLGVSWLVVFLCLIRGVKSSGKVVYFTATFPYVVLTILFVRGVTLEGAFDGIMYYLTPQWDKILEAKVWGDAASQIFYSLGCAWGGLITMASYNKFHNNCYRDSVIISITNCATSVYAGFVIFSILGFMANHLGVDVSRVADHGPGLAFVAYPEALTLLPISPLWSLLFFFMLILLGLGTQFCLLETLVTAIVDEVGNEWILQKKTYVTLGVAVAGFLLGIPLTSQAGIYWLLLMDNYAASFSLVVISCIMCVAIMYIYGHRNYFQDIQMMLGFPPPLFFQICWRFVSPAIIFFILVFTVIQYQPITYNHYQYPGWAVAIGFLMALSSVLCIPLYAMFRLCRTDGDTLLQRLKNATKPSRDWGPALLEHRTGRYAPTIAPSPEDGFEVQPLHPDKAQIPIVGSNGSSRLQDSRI
In words: [14C]glycine uptake assay in JAR cells endogenously expressing GlyT-1 (scintillation proximity). The format is cell-based. Particulars: GlyT-1 IC50 (nM). How it is done:
The inhibitory activity of compounds of the invention against the glycine transporter-1 (GlyT-1) can be determined by the following scintillation proximity assay. The potency of each compound was assessed in inhibiting the uptake of radiolabeled glycine ([^14C]glycine) using the human choriocarcinoma cell line, JAR cells (ATCC#HTB-144), which endogenously express GlyT-1. In brief, 50,000 JARS cells were plated per well of tissue culture treated 96-well Cytostar-T plate (PerkinElmer) in RPMI media supplemented with 10% heat inactivated FBS and allowed to attach overnight at 37° C. and 5% CO2. Compounds were serially diluted 3-fold in DMSO generating a nine (9) data point response curve for each compound. Two replicates were performed per determination. The compounds were then diluted into Uptake Buffer (10 mM Hepes, 120 mM NaCl, 2 mM KCl, 1 mM CaCl2 and 1 mM MgCl2, 5 mM Alanine, pH 7.4) with a final DMSO concentration of 0.75% (v/v). Following the overnight incubation, the media was replaced with Uptake Buffer in the presence or absence of diluted compound and pre-incubated at room temperature for 10 minutes prior to the addition of [^14C]glycine at a final concentration of 5 μM. Following a 3 hour incubation period at 37° C. and 5% CO2, the plates were sealed and placed at room temperature in the dark for 15 minutes prior to quantification of incorporated radioactivity using a MicroBeta Trilux scintillation plate reader (PerkinElmer). Data were fit into a four-parameter model to determine the inhibitor concentration at half-maximal response (IC50). The assay window was established by control wells incubated with [^14C]glycine in the presence or absence of 10 mM non-labeled glycine. A dose response curve for a synthesized reference standard was generated on every plate as a positive control.
With `CCCS(=O)(=O)N1CCN(C2(CNC(=O)c3c(F)cccc3F)CC3CC3C2)CC1` (stereo not shown) [compound 199, 2,6-Difluoro-N-((3-(4-(propylsulfonyl)piperazin-1-yl)bicyclo[3.1.0]hexan-3-yl)methyl)benzamide Hydrochloride], the IC50 was found to be 621 nM.

Still in this experiment, the particulars now being: JAR cells, [14C]glycine 5 μM, 3 hour incubation; read-out: GlyT-1 IC50.
Take `CCC(F)S(=O)(=O)N1CCN(C2(CNC(=O)c3ccc(C(F)(F)F)cc3Cl)CCC(F)(F)CC2)CC1` (stereo not drawn) [compound 244, 2-Chloro-N-((4,4-difluoro-l-(4-(1-fluoropropylsulfonyl)piperazin-1-yl)cyclohexyl)methyl)-4-(trifluoromethyl)benzamide Hydrochloride]: the IC50 worked out at 51 nM.

As for `CCCS(=O)(=O)N1CCN(C2(CNC(=O)c3c(F)cccc3C(F)(F)F)CCC(F)(F)CC2)CC1` [compound 149, N-((4,4-Difluoro-1-(4-(propylsulfonyl)piperazin-1-yl)cyclohexyl)methyl)-2-fluoro-6-(trifluoromethyl)benzamide Hydrochloride], the concentration for half-maximal inhibition (IC50) was found to be 69 nM.

Take `CCCS(=O)(=O)N1CCN(C2(CNC(=O)c3ccccc3F)CCC(F)(F)CC2)CC1` [compound 131, N-((4,4-Difluoro-1-(4-(propylsulfonyl)piperazin-1-yl)cyclohexyl)methyl)-2-fluorobenzamide Hydrochloride]: the concentration for half-maximal inhibition (IC50) stood at 291 nM.

For `CCCS(=O)(=O)N1CCN(C2(C(C)NC(=O)c3c(F)cccc3F)CCC(F)(F)CC2)CC1` (stereo not shown) [compound 197, N-(1-(4,4-Difluoro-1-(4-(propylsulfonyl)piperazin-1-yl)cyclohexyl)ethyl)-2,6-difluorobenzamide Hydrochloride], the IC50 came to 304 nM.

In the case of `CCCS(=O)(=O)N1CCN(C2(CNC(=O)c3c(Cl)cccc3C(F)(F)F)CCC(F)(F)CC2)CC1` [compound 157, 2-Chloro-N-((4,4-difluoro-1-(4-(propylsulfonyl)piperazin-1-yl)cyclohexyl)methyl)-6-(trifluoromethyl)benz-amide Hydrochloride], the IC50 worked out at 59 nM.

As to `Cn1cnc(S(=O)(=O)N2CCN(C3(CNC(=O)c4ccccc4OC(F)F)CCC(F)(F)CC3)CC2)c1` [compound 183, N-((4,4-Difluoro-1-(4-(1-methyl-1H-imidazol-4-ylsulfonyl)piperazin-1-yl)cyclohexyl)methyl)-2-(difluoromethoxy) benzamide Hydrochloride], the IC50 came to 5 nM.

For `Cl.[2H]C([2H])([2H])n1cc(S(=O)(=O)N2CCN(C3(CNC(=O)c4ccc(C(F)(F)F)cc4Cl)CCC(F)(F)CC3)CC2)nn1` [compound 240, 2-Chloro-N-((4,4-difluoro-1-(4-(1-(tris-deutero)methyl-1H-1,2,3-triazol-4-ylsulfonyl)piperazin-1-yl)cyclohexyl)methyl)-4-(trifluoromethyl)benzamide Hydrochloride], the IC50 came out at 49 nM.

Take `Cn1cc(S(=O)(=O)N2CCN(C3(CNC(=O)c4ccc(C(F)(F)F)cc4C(F)(F)F)CCOCC3)CC2)nn1` [compound 276, N-((4-(4-(1-Methyl-1H-1,2,3-triazol-4-ylsulfonyl)piperazin-1-yl)tetrahydro-2H-pyran-4-yl)methyl)-2,4-bis(trifluoromethyl) benzamide Hydrochloride]: the IC50 came to 7 nM.

`CC(=O)CS(=O)(=O)N1CCN(C2(CNC(=O)c3ccc(C(F)(F)F)cc3Cl)CCC(F)(F)CC2)CC1` [compound 280, 2-Chloro-N-((4,4-difluoro-1-(4-(2-oxopropylsulfonyl)piper-azin-1-yl)cyclohexyl)methyl)-4-(trifluoromethyl) benzamide Hydrochloride]: the IC50 came out at 61 nM.

With `CCCS(=O)(=O)N1CCN(C2(CNC(=O)c3ccc(F)cc3C(F)(F)F)CCC(F)(F)CC2)CC1` [compound 148, N-((4,4-Difluoro-1-(4-(propylsulfonyl)piperazin-1-yl)cyclohexyl)methyl)-4-fluoro-2-(trifluoromethyl)benzamide Hydrochloride], the IC50 was determined as 30 nM.

For the compound `CCCS(=O)(=O)N1CCN(C2(CNC(=O)c3cc(C(F)(F)F)ccc3C(F)(F)F)CCC(F)(F)CC2)CC1` [compound 248, N-((4,4-Difluoro-1-(4-(propylsulfonyl)piperazin-1-yl)cyclohexyl)methyl)-2,5-bis(trifluoromethyl) benzamide Hydrochloride], the IC50 is 159 nM.

Turning to `O=C(NCC1(N2CCN(S(=O)(=O)N3CCC(F)(F)C3)CC2)CCC(F)(F)CC1)c1ccc(C(F)(F)F)cc1Cl` [compound 272, 2-Chloro-N-((1-(4-(3,3-difluoropyrrolidin-1-ylsulfonyl)piperazin-1-yl)-4,4-difluorocyclohexyl)methyl)-4-(trifluoromethyl) benzamide Hydrochloride], the IC50 was found to be 1100 nM.

Take `CCCS(=O)(=O)N1CCN(C2(CNC(=O)c3c(F)ccc(C(F)(F)F)c3F)CCC(F)(F)CC2)CC1` [compound 262, N-((4,4-Difluoro-1-(4-(propylsulfonyl)piperazin-1-yl)cyclohexyl)methyl)-2,6-difluoro-3-(trifluoromethyl)benzamide Hydrochloride]: the 50% inhibitory concentration (IC50) was 223 nM.

Turning to `CCCS(=O)(=O)N1CCN(C2(CNC(=O)c3c(C)cccc3Cl)CCC(F)(F)CC2)CC1` [compound 155, 2-Chloro-N-((4,4-difluoro-1-(4-(propylsulfonyl)piperazin-1-yl)cyclohexyl)methyl)-6-methylbenzamide Hydrochloride], the 50% inhibitory concentration (IC50) is 26 nM.

Regarding `CCC(F)(F)S(=O)(=O)N1CCN(C2(CNC(=O)c3ccc(C(F)(F)F)cc3Cl)CCC(F)(F)CC2)CC1` [compound 251, 2-Chloro-N-((1-(4-(1,1-difluoropropylsulfonyl)piperazin-1-yl)-4,4-difluorocyclohexyl)methyl)-4-(trifluoromethyl) benzamide Hydrochloride], the IC50 worked out at 987 nM.

As for `CCS(=O)(=O)N1CCN(C2(CNC(=O)c3c(C)cc(C)cc3C)CCC(F)(F)CC2)CC1` [compound 217, N-((1-(4-(Ethylsulfonyl)piperazin-1-yl)-4,4-difluorocyclohexyl)methyl)-2,4,6-trimethylbenzamide Hydrochloride], the IC50 amounted to 216 nM.

Consider `CCCS(=O)(=O)N1CCN(C2(CNC(=O)c3ccc(Cl)c(Cl)c3)CCCCC2)CC1` [compound 26, 3,4-Dichloro-N-((1-(4-(propylsulfonyl)piperazin-1-yl)cyclohexyl)methyl) benzamide Hydrochloride], for which the IC50 worked out at 245 nM.

In the case of `CCCS(=O)(=O)N1CCN(C2(CNC(=O)c3c(F)cccc3Cl)CCC(F)(F)CC2)CC1` [compound 156, 2-Chloro-N-((4,4-difluoro-1-(4-(propylsulfonyl)piperazin-1-yl)cyclohexyl)methyl)-6-fluorobenzamide Hydrochloride], the IC50 came out at 43 nM.

For `Cc1cccc(F)c1C(=O)NCC1(N2CCN(S(=O)(=O)c3cn(C)cn3)CC2)CCC(F)(F)CC1` [compound 182, N-((4,4-Difluoro-1-(4-(1-methyl-1H-imidazol-4-ylsulfonyl)piperazin-1-yl)cyclohexyl)methyl)-2-fluoro-6-methylbenzamide Hydrochloride], the IC50 stood at 6 nM.

`CCCS(=O)(=O)N1CCN(C2(CNC(=O)c3c(F)cccc3F)CCCCC2)CC1` [compound 16, 2,6-Difluoro-N-((1-(4-(propylsulfonyl)piperazin-1-yl)cyclohexyl)methyl) benzamide Hydrochloride]: the IC50 came to 23 nM.

Turning to `Cc1cccc(C)c1C(=O)NCC1(N2CCN(S(=O)(=O)c3cn(C)cn3)CC2)CCC(F)(F)CC1` [compound 164, N-((4,4-Difluoro-1-(4-(1-methyl-1H-imidazol-4-ylsulfonyl)piperazin-1-yl)cyclohexyl)methyl)-2,6-dimethylbenzamide Hydrochloride], the IC50 was 4 nM.
